The term Ki denotes the equilibrium dissociation constant of an inhibitor or competing ligand from its target. The EC50 is the midpoint of the concentration-response curve.

Data on 24 compounds can be found in PMC12406204 (Journal of Medicinal Chemistry, 2025).

Assay [1] deals with T1, CB1R (Homo sapiens, UniProt P21554). The experiment in a line: CB1R radioligand binding competition ([3H]CP55,940). More on the design: host or cells: CHO-CB1 C3 cell line. As to conditions: for CB1R % at 1 μM: percentage displacement of specific [3H]CP 55,940 binding at 1 μM, n = 2; for Ki: displacement of [3H]CP 55,940, membranes of CHO-CB1 C3 cells, n = 3.
In assay [2] the target is T2, CB2R (Homo sapiens, UniProt P34972). Briefly: CB2R radioligand binding competition ([3H]CP55,940). On the set-up: expressed in transfected cells; host or cells: HEK-293T (HEK-CB2 cell line). The note with it: for Ki: displacement of [3H]CP 55,940, membranes of HEK-293T cells, n = 3; for SI Ki CB1R/Ki CB2R: selectivity index, affinity ratio. For orientation: In a radioligand displacement assay an active substance lowers the binding of a labelled ligand.

Assay [3] concerns the target T2, CB2R. The experiment in a line: CB2R MAPK phosphorylation. Type of assay: cell-based. More on the design: expressed in transfected cells; host or cells: HEK-293T, transient transfection (PEI). From the text: (§1) Initially we tested their ability to modify CB2R-mediated cAMP accumulation, providing insights into their functional behavior as either agonists or antagonists (Table ). Moreover, the signaling profiles of selected ligands were investigated through their impact on β-arrestin recruitment and Mitogen-Activated Protein Kinase (MAPK) phosphorylation pathway, enabling a more comprehensive evaluation of their intracellular signaling profiles (Table ).
(§2) JWH-133, a well-known nonbiased (balanced) agonist, was employed as the reference for comparing the signaling profiles of the tested compounds. An operational model analysis was applied to quantify the functional bias of each CB2R-selective agonist. This involved calculating the bias factor by comparing the signaling pathways: β-arrestin versus cAMP, MAPK versus cAMP, and β-arrestin versus MAPK.

Assay [4] has as its target T2, CB2R. Briefly: CB2R β-arrestin recruitment. Format: cell-based. On the set-up: expressed in transfected cells; host or cells: HEK-293T, transient transfection (PEI).
Text: as §1, §2
A general note: Recruitment of arrestin is a read-out of receptor activation apart from second messengers.

In assay [5] the target is T2, CB2R. Briefly: CB2R cAMP determination after forskolin stimulation in transfected HEK-293T cells. Type of assay: cell-based. More on the design: expressed in transfected cells; host or cells: HEK-293T, transient transfection (PEI). The method, then: as §1
HEK-293T cells were grown in Dulbecco’s Modified Eagle’s Medium (DMEM) medium (Gibco, Paisley, Scotland, United Kingdom) supplemented with 2 mM L-glutamine, 100 U/mL penicillin/streptomycin, MEM Non-Essential Amino Acids Solution (1/100) and 5% (v/v) heat inactivated Fetal Bovine Serum (FBS) (Invitrogen, Paisley, Scotland, United Kingdom). Cells were maintained in a humid atmosphere of 5% CO2 at 37 °C. Cells were transiently transfected with the PEI (Polyethylenimine, Sigma, St. Louis, MO, United States) method as previously described and used for functional assays 48 h later.
Signaling experiments have been performed as previously described. Two hours before initiating the experiment, HEK-293T cell-culture medium was replaced by serum-starved DMEM medium. Then, cells were detached, resuspended in growing medium containing […] zardaverine (Tocris, Bristol, U.K.) and placed in 384-well microplates (2500 cells/well). Cells were pretreated (15 min) with cannabinoid compounds (1 nM to 100 μM) -or vehicle- before adding […] forskolin (Tocris, Bristol, U.K.) to induce cAMP accumulation. Readings were performed after 15 min incubation at 25 °C. Homogeneous Time Resolved Fluorescence (HTRF) energy transfer measures were performed using the Lance Ultra cAMP kit (PerkinElmer, Waltham, MA, United States). Fluorescence at 665 nm was analyzed in a PHERA star Flagship microplate reader equipped with an HTRF optical module (BMG Lab Technologies, Offenburg, Germany).

The target in assay [6] is T2, CB2R. More on the design: expressed in transfected cells; host or cells: HEK-293T (HEK-CB2 cell line).
Assay [7] has as its target T1, CB1R. More on the design: host or cells: CHO-CB1 C3 cell line.
Setting [8] is: read-out: CB2R Ki; abused SCRAs and N-methyl analogues, earlier study of the authors; cited from earlier work.
The mark [9] stands for this setting: read-out: CB1R Ki; abused SCRAs and N-methyl analogues, earlier study of the authors; cited from earlier work.
The mark [10] stands for this setting: at 1 μM, earlier study of the authors; cited from earlier work.

Read-outs that look alike come from different tables or passages of the source. Where only a bound is given, the exact number is not on record here.

T1 sequence (P21554 whole entry): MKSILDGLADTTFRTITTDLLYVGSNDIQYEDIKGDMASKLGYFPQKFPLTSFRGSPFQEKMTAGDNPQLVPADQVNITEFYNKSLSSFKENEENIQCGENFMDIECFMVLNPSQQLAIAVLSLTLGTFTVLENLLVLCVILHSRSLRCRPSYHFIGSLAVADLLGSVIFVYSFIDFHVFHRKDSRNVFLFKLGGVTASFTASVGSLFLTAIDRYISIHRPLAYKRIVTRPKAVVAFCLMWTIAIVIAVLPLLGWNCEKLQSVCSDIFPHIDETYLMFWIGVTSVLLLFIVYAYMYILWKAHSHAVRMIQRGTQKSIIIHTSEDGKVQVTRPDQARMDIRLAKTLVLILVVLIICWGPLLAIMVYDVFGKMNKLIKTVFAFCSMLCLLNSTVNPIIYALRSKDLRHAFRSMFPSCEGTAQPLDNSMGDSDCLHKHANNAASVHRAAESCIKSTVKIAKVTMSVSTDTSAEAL
T2 sequence (P34972 whole entry): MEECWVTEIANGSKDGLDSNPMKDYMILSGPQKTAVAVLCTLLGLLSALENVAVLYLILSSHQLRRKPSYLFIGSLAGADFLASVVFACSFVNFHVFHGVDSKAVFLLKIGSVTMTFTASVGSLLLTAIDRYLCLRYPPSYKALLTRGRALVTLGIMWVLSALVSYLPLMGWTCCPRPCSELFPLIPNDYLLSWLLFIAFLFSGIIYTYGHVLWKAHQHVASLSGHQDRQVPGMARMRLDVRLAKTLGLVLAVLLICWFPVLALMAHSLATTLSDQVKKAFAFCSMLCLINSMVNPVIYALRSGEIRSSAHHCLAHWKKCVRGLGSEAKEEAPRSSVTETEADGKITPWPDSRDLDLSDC

In the case of `NC(=O)[C@H]1CCCCN1C(=O)c1cn(Cc2ccc(F)cc2)c2ccccc12` [18h], the “CB1R % at 1 μM” value at CB1R [1] is on record as 3%. Besides, on CB2R [2], the affinity corresponds to a Ki of 207 ± 9 nM and the “SI Ki CB1R/Ki CB2R” value is given as greater than 100.
Turning to `CCCCCn1nc(C(=O)N2CCCC[C@H]2C(N)=O)c2ccccc21` [18i], the “CB1R % at 1 μM” value on CB1R [1] turned out to be 2%. Also, at CB2R [2], affinity was put at a Ki of 91.8 ± 4.9 nM and the “SI Ki CB1R/Ki CB2R” value was greater than 100.
In the same order, the values of `CCCCCn1nc(C(=O)N2CCCC[C@@H]2C(N)=O)c2ccccc21` [18j] are 2%, 145 ± 6 nM and greater than 100.
In the same order, the values of `NC(=O)[C@@H]1CCCCN1C(=O)c1nn(CCCCCF)c2ccccc12` [18k] are 3%, 151 ± 6 nM and greater than 100.
In the same order, the values of `NC(=O)[C@H]1CCCCN1C(=O)c1nn(CCCCCF)c2ccccc12` [18l] are 3%, 143 ± 5 nM and greater than 100.
Take `NC(=O)[C@@H]1CCCCN1C(=O)c1nn(CC2CCCCC2)c2ccccc12` [18m]: at CB1R [1], the “CB1R % at 1 μM” value is reported as 21%. At CB2R [2], the Ki worked out at 59.5 ± 2.8 nM and the “SI Ki CB1R/Ki CB2R” value is on record as greater than 100.
`NC(=O)[C@H]1CCCCN1C(=O)c1nn(CC2CCCCC2)c2ccccc12` [18n]: the “CB1R % at 1 μM” value on CB1R [1] is on record as 26%. Further, on CB2R [2], the affinity corresponds to a Ki of 112 ± 4 nM and the “SI Ki CB1R/Ki CB2R” value is greater than 100.
`COc1ccc2c(c1)c(CCN1CCOCC1)c(C)n2C(=O)c1cccc(Cl)c1Cl` [GW405833, reference compound] showed a Ki on CB1R [1] of 4770 ± 110 nM. For the same compound, at CB2R [2], the Ki amounted to 5.8 ± 0.4 nM and the “SI Ki CB1R/Ki CB2R” value came to 822.
Consider `CCCC(C)(C)c1ccc2c(c1)OC(C)(C)[C@@H]1CC=C(C)C[C@@H]21` [JWH-133, reference compound], for which the EC50 on CB2R [3] amounted to 2.7 ± 0.19 nM; at CB2R [4] it was 1.34 ± 0.05 nM; at CB2R [5] (transfected HEK-293T cells, forskolin-stimulated cAMP, read-out: CB2R EC50 AMPc), 6.73 ± 0.5 nM. At CB2R [3] (normalized to CP 55,940), the “CB2R Emax MAPK” value worked out at 98%. Also, on CB2R [4] (normalized to CP 55,940), the “CB2R Emax β-arrestin” value is reported as 93%. Also, the “CB2R Emax AMPc” value at CB2R [5] (normalized to maximal efficacious concentration of CP 55,940) is on record as 98%.
For the compound `CCc1c(C(=O)NN2CCCCC2)nn(-c2ccc(Cl)cc2Cl)c1-c1ccc(Br)cc1` [Surinabant, reference compound], the Ki on CB1R [1] is 3 ± 0.2 nM. For the same compound, on CB2R [2], the Ki was 400 ± 6 nM and the “SI Ki CB1R/Ki CB2R” value amounted to 0.0075.
For the compound `COC(=O)[C@@H](NC(=O)c1nn(CCCCCF)c2ccccc12)C(C)(C)C` [compound 1, 5F-MDMB-PINACA], the Ki on CB2R [6] (setting [8]) was 0.1 nM; at CB1R [7] (setting [9]), 0.8 nM.
As for `COC(=O)[C@@H](NC(=O)c1nn(Cc2ccc(F)cc2)c2ccccc12)C(C)(C)C` [compound 2, MDMB-FUBINACA], the inhibitory constant (Ki) was 0.3 nM at CB2R [6] (setting [8]) and 0.83 nM on CB1R [7] (setting [9]).
Consider `COC(=O)[C@@H](NC(=O)c1cn(CC2CCCCC2)c2ccccc12)C(C)C` [compound 3, AMB-CHMICA], for which the Ki at CB2R [6] (setting [8]) is 3.44 nM; at CB1R [7] (setting [9]) it was 10.5 nM.
`COC(=O)[C@@H](NC(=O)c1cn(Cc2ccc(F)cc2)c2ccccc12)C(C)C` [compound 4, AMB-FUBICA]: the Ki on CB2R [6] (abused SCRAs and N-methyl analogues, earlier study of the authors; read-out: CB2R Ki; cited from earlier work) is 20 nM; on CB1R [7] (abused SCRAs and N-methyl analogues, earlier study of the authors; read-out: CB1R Ki; cited from earlier work), 47.8 nM.
`CCCCCn1nc(C(=O)N[C@H](C(N)=O)C(C)C)c2ccccc21` [compound 5, AB-PINACA]: the Ki at CB2R [6] (setting [8]) is 0.94 nM; on CB1R [7] (setting [9]), 1.16 nM.
Consider `CC(C)[C@H](NC(=O)c1nn(CC2CCCCC2)c2ccccc12)C(N)=O` [compound 6], for which the Ki was 1.1 nM at CB2R [6] (setting [8]) and 0.9 nM at CB1R [7] (setting [9]).
For the compound `CC(C)[C@H](NC(=O)c1cn(CCCCCF)c2ccccc12)C(N)=O` [compound 7, 5F-AB-PICA], the results for the Ki at CB2R [6] (setting [8]) and at CB1R [7] (setting [9]) were 8.6 nM and 14.8 nM, respectively.
In the case of `CC(C)[C@H](NC(=O)c1cn(Cc2ccc(F)cc2)c2ccccc12)C(N)=O` [compound 8, AB-FUBICA], the results for the Ki at CB2R [6] (setting [8]) and on CB1R [7] (setting [9]) were 83.2 nM and 35.2 nM, respectively.
As for `CC(C)(C)[C@H](NC(=O)c1cn(CC2CCCCC2)c2ccccc12)C(N)=O` [compound 9, ADB-CHMICA], the Ki is 0.76 nM at CB2R [6] (setting [8]) and 1.1 nM at CB1R [7] (setting [9]).
For the compound `CC(C)(C)[C@H](NC(=O)c1cn(Cc2ccc(F)cc2)c2ccccc12)C(N)=O` [compound 10, ADB-FUBICA], the values for the Ki at CB2R [6] (setting [8]) and on CB1R [7] (setting [9]) were 5.15 nM and 53.8 nM, respectively.
Take `COC(=O)CNC(=O)c1nn(Cc2ccc(F)cc2)c2ccccc12` [compound 11]: the Ki was 125 nM on CB2R [6] (setting [8]) and 181 nM at CB1R [7] (setting [9]).
Consider `COC(=O)CN(C)C(=O)c1nn(Cc2ccc(F)cc2)c2ccccc12` [compound 12], for which, at CB2R [6] (setting [8]), the Ki is 540 nM. On CB1R [7] (setting [10]), the “CB1R % (1 μM)” value is given as 33%.
As for `NC(=O)CNC(=O)c1nn(CC2CCCCC2)c2ccccc12` [compound 13], the inhibition constant Ki at CB2R [6] (setting [8]) is 171 nM; on CB1R [7] (setting [9]), 268 nM.
In the case of `CN(CC(N)=O)C(=O)c1nn(CC2CCCCC2)c2ccccc12` [compound 14], the inhibition constant (Ki) at CB2R [6] (setting [8]) was 482 nM. Further, on CB1R [7] (setting [10]), the “CB1R % (1 μM)” value is 21%.
